Entries after “also recorded” stand apart in the source; their conditions may differ. One block for each compound: values may come before it.
Experiments:
MDM2 = MDM2 (Homo sapiens, UniProt Q00987); settings: unconjugated peptide, Table 9; ITC; read-out: Previously reported Kd value; cited from earlier work
plasmid DNA = test: Rotor fluorescence with plasmid DNA; type: binding; settings: 100 uM rotor, 5 ug plasmid DNA
Description: 100 uM of Sybr green, Pyrene or CCVJ rotors were each added to either 5 ug plasmid DNA, 5 ug DNA with 500 mM NaOH, or PBS buffer only. Resulting fluorescence for each reaction mixture were then compared across the respective filters (Sybr 497/520, Pyrene 376/530, Julolidine 433/505).

[1] = system: p53 binding sequence duplex DNA; test: Rotor fluorescence with p53 binding sequence duplex DNA (intercalation); settings: FIG. 7
Description: For the first set with DNA only, 1×PBS buffer and p53 6× binding buffer were first added to the wells. Subsequently, rotor was added. Lastly, DNA was added. The combined solutions were mixed in each well and allowed to incubate in the dark at room temperature for, half an hour before data on fluorescence intensity was gathered.
(§1) Measurements were taken using Greiner 384 black flat-clear-bottom for 18 uL mixtures, Corning 96 flat-black half-area for 80 uL and 100 uL mixtures, and Tecan Infinite M-1000 Spectrophotometer.

[2] = biological target: p53 protein binding to DNA (Homo sapiens, UniProt P04637); test: Fluorescence change of DNA-bound rotor on addition of p53 protein
Description: For the third set with DNA and p53, 1×PBS buffer and p53 6× binding buffer were first added to the wells. Subsequently, rotor was added and DNA was added. The combined solutions were mixed in each well and allowed to incubate in the dark at room temperature for half an hour before p53 was added. The combined solutions were then allowed to incubate in the dark at room temperature for another half an hour before data on fluorescence intensity was gathered.
6× binding buffer consists: 150 mM sodium phosphate buffer, 600 uM KCl, 24 mM DTT.
as §1

streptavidin = streptavidin (Streptomyces avidinii, UniProt P22629); test: Fluorescence of rotor-biotin conjugate on addition of streptavidin; type: binding
Description: FIG. 4a depicts the emission spectra of a CCVJ molecular rotor bound to biotin with Streptavidin. […] 40 μM of rotor-biotin conjugate was incubated for 15 min with 50 μg of streptavidin. Fluorescence emission spectrum was measured using an excitation wavelength (λex) of 433 nm.

Sequence of p53 protein binding to DNA (P04637 whole entry): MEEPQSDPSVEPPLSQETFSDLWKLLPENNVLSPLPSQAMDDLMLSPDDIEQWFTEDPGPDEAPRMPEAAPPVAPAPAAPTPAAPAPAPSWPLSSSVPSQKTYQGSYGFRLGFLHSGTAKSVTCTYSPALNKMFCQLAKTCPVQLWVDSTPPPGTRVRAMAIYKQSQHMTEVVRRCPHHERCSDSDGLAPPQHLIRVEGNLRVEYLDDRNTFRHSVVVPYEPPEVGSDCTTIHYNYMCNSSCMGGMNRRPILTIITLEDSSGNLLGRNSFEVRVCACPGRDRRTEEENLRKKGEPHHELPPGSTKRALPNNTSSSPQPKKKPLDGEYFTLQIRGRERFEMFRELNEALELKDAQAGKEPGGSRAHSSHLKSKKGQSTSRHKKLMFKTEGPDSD
Sequence of MDM2 (Q00987 whole entry): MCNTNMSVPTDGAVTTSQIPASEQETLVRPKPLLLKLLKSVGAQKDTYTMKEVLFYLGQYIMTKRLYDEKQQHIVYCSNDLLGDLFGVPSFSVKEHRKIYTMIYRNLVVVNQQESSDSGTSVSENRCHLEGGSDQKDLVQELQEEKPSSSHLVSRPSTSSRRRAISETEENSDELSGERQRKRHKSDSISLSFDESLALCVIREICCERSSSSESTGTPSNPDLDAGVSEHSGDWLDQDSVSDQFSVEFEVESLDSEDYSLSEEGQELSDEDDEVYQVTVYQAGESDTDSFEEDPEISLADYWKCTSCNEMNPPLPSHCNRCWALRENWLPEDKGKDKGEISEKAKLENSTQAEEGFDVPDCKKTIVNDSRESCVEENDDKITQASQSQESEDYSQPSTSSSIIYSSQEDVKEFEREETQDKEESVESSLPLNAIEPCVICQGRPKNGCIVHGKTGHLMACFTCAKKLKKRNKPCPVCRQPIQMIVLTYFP

Compound: MPRFMDYWEGLNK [JP2]
Kd (MDM2): 240 ± 53.8 nM

Compound: N#C/C(=C\c1cc2c3c(c1)CCCN3CCC2)C(=O)O [CCVJ, 9-(2-carboxy-2-cyanovinyl) julolidine]
Fluorescence signal with plasmid DNA (plasmid DNA): weak signal

Rotor:DNA ratio at saturation of fluorescence intensity [1]: 15 × rotor
Compound: C[n+]1ccc(/C=C/c2ccc(-n3c4ccc(/C=C/c5cc[n+](C)cc5)cc4c4cc(/C=C/c5cc[n+](C)cc5)ccc43)cc2)cc1 [carbazole-based (3-arm) rotor, 4,4′-((1E,1′E)-(9-(4-((E)-2-(1-methylpyridin-1-ium-4-yl)vinyl)phenyl)-9H-carbazole-3,6-diyl)bis(ethene-2,1-diyl))bis(1-methylpyridin-1-ium)]

Rotor:DNA ratio at saturation of fluorescence intensity [1]: 0.5 × rotor
Compound: CN(C)c1ccc2cc3ccc(N(C)C)c(/C=C(\C#N)C(=O)O)c3nc2c1 [acridine-based rotor]
Fluorescence change when p53 is added to DNA-bound rotor [2]: decreased fluorescence signal; also recorded: fluorescence intensity dropped

Rotor:DNA ratio at saturation of fluorescence intensity [1]: 15 × rotor
Compound: C[n+]1c(/C=C2/C=CN(CCCN)c3ccccc32)sc2ccccc21 [thiazole-based rotor]

Compound: MPRFMDYWEGLSK [JP1]
Kd (MDM2): 18.8 ± 5.03 nM

Fluorescence change when p53 is added to DNA-bound rotor [2]: turn-off effect
Rotor:DNA ratio at saturation of fluorescence intensity [1]: 15 × rotor
Compound: C[n+]1ccc(/C=C/c2ccc3c(c2)c2cc(/C=C/c4cc[n+](C)cc4)ccc2n3-c2ccccc2)cc1 [carbazole-based (2-arm) rotor, 4,4′-((1E,1′E)-(9-phenyl-9H-carbazole-3,6-diyl)bis(ethene-2,1-diyl))bis(1-methylpyridin-1-ium)]

Compound: N#C/C(=C\c1cc2c3c(c1)CCCN3CCC2)C(=O)OCCNC(=O)CCCCC1SCC2NC(=O)NC21 (centres unmarked) [biotin-rotor probe]
Fluorescence increase on addition of streptavidin (streptavidin; 40 μM conjugate, 50 μg streptavidin, 15 min): 2 fold

Compound: N#C/C(=C\c1ccc2ccc3cccc4ccc1c2c34)C(=O)O [pyrene-based molecular rotor]
Fluorescence change on binding to streptavidin (streptavidin; FIG. 4b): fluorescence increase

Reference: patent US9863937B2, “Fluorescent molecular rotors” (Agency for Science, Technology and Research, priority 2012, dated 2018)
